The text below walks through data of patent US12246002B2, “Pharmaceutical composition for prevention or treatment of circadian rhythm-related disorders, comprising oxyiminomethylbenzene derivative as active ingredient” (KOREA UNIVERSITY RESEARCH AND BUSINESS FOUNDATION, priority 2018, dated 2025).

One data set relates to CLOCK:BMAL1 dimer. Kind of data set: E-box-LUC reporter assay of transcriptional activity of CLOCK:BMAL1 dimer in NIH-3T3 fibroblast line. Type of data set: cell-based. The following applies: NIH-3T3 E-box-LUC cells; for Max (%) maximum activity of E-box-LUC reporter compared to the control group: four parameter logistic fit, DMSO control. As to the method: The NIH-3T3 fibroblast line (Non-patent document 6) expressing the E-box-LUC reporter was used to evaluate the effect of the oxyiminomethylbenzene derivative on the transcriptional activity of the CLOCK:BMAL1 dimer mediated by E-box. Reporter-expressing fibroblast line was maintained and cultured in an incubator in a humidified state at 5% carbon dioxide and 37 degrees Celsius, using Dulbecco's modified eagles medium (Invitrogen) having 10% fetal bovine serum, 1% penicillin/streptomycin (Invitrogen) and 1% L-glutamine added thereto.
(§1) The reporter-expressing cell line was dispensed and cultured in a 48-well culture plate 24 hours before compound treatment. The cultured cells were finally treated with a compound to a concentration of 0.1, 0.3, 1.0, 3.0, 10, 30 or 100 μM. As a control group (0 μM), cells treated with the same amount of dimethyl sulfoxide (DMSO) were used. After 36 hours elapsed after treatment of the compound, the cells were washed twice with 1× D-PBS, and was lysed for 15 minutes using 100 μl of a cell lysis buffer (Promega) per well. After reacting a 20 μl sample of the lysate with the same amount of a luciferase assay reagent (Promega), the luciferase activity was measured using a luminometer (TD-20/20 Luminometer, Turner systems). The measured luciferase activity was corrected based on the protein content of the lysate. The protein content was measured using a Bradford staining reagent from Bio-rad.
(§2) The concentration-response correlation for each derivative was converted to a standard curve using Four Parameter Logistic Equation. The calculation process utilized the statistical analysis function provided by SigmaPlot 10.0 ([…], Systat Software Inc.). Based on the concentration-response curve, the maximum activity (Max) and EC50 values of each derivative were calculated and input in [Table 1]. When the compound induces cell death, cytotoxicity (Tox.) was input to the EC50 field. The concentration-reaction correlation curves of compounds of Chemical Formula 8-9, 9-9, 8-10 and 9-10 as a representative example are shown in FIG. 1.

For the next data set, the system named is PER2-LUC fusion protein. The data set is described as follows: Circadian rhythm expression of PER2-LUC fusion protein in PER2-LUC knock-in fibroblasts (real-time bioluminescence, Cosinor analysis). Type of data set: cell-based, mouse. The conditions noted are these: 20 μM, PER2-LUC KI fibroblasts, FIG. 3; for amplitude of the circadian rhythm expression of the PER2-LUC fusion protein: DEX synchronized, up to 5 days. As to the method:
The effects of the compounds (8-9 and 8-10) prepared in Example 1 on the circadian rhythm expression of the molecular biological clock whose the cells are expressed through inhibition of CRY and enhancement of transcriptional activity of CLOCK:BMAL1 were evaluated. To this end, a mutant fibroblast line (PER2-LUC knock-in fibroblast) was used in which a PER2-LUC fusion protein is expressed via linking the luciferase gene from the position where the stop codon of the PER2 gene is located. The cell line was established from lung tissue of PER2-LUC knock-in mutant mice (Non-patent document 31) 1 week after birth. PER2-LUC knock-in (KI) fibroblasts was maintained and cultured in the incubator under a humidified state at 5% carbon dioxide and 37 degrees Celsius using Dulbecco's modified Eagle medium supplemented with 10% serum, 1% penicillin/streptomycin, and 1% L-glutamine.
After treating the cultured cells with 200 nM dexamethasone (DEX) for 2 hours for synchronization, the DEX was replaced with a medium including the substrate of luciferase that is, luciferin (final concentration 0.1 mM) with 20 μM of the compound of Chemical Formula 8-9 or 8-10. As a control group, cells (VEH) treated with the same amount of dimethyl sulfoxide instead of the compound were used. As another comparative group, the cells treated with a 2-ethoxypropionic acid-based CRY inhibitor (Non-patent document 6), that is, KS15 (final concentration 20 μM) was used. The control and the KS15-treated cells were also replaced with a medium including luciferin of the same concentration.
Bioluminescence signals generated from cells cultured in a medium including the compound and luciferin were continuously measured for up to 5 days at 10-minute intervals using a real-time bioluminescence measurement equipment (Kronos-DIO, ATTO). The results were identified through statistical detrending. The circadian rhythm expression pattern of the PER2-LUC fusion protein was analyzed using the Cosinor analysis program (free distribution on http://www.circadian.org) to determine the amplitude, period, and robustness of the periodicity. Based on the results obtained through 4 replicate experiments, the statistical significance of the change according to compound treatment was verified.

The test system of a further data set is NIH-3T3 fibroblast line. The data set is described as follows: Cytotoxicity (cell death) seen in the E-box-LUC reporter assay. Type of data set: cell-based. The following applies: for cytotoxicity (Tox.) input to the EC50 field when the compound induces cell death: NIH-3T3 E-box-LUC cells, 0.1-100 μM, 36 hours. As to the method: as §1, §2

Turning to `COC(=O)COc1ccc(C(C)=NOCc2ccc(OC)cc2)cc1` [Compound 9-3, methyl 2-(4-{N-[(4-methoxyphenyl)methoxy]ethanimidoyl}phenoxy)acetate], the “Max (%) maximum activity of E-box-LUC reporter compared to the control group” value (“Max (%) maximum activity” for short) in the data set with CLOCK:BMAL1 dimer (0.1-100 μM, 36 hours) came to 103.87%.

For the molecule `COC(=O)COc1ccc(C(C)=NOCc2ccc(Br)cc2)cc1` [Compound 9-5, methyl 2-(4-{N-[(4-bromophenyl)methoxy]ethanimidoyl}phenoxy)acetate], the “Max (%) maximum activity” value in the data set on CLOCK:BMAL1 dimer (0.1-100 μM, 36 hours) worked out at 111.88%.

Consider `CC(=NOCc1ccc([N+](=O)[O-])cc1)c1cccc(OCC(=O)O)c1` [Compound 8-10, (3-{N-[(4-nitrophenyl)methoxy]ethanimidoyl}phenoxy)acetic acid], for which the “activity of E-box-LUC (concentration-response, FIG. 1)” value with CLOCK:BMAL1 dimer was “increase the activity of E-box-LUC in a concentration-dependent manner”. In addition, in the data set on PER2-LUC fusion protein, the “amplitude of the circadian rhythm expression of the PER2-LUC fusion protein” value is “increases the amplitude of the circadian rhythm expression of the PER2-LUC fusion protein at a significant level”, the “period of the circadian rhythm expression of the PER2-LUC fusion protein” value is “not affecting the period” and the “robustness of the circadian rhythm expression of the PER2-LUC fusion protein” value is recorded as “not affecting the period or robustness”. `COC(=O)COc1ccc(C(C)=NOCc2cccc(C(F)(F)F)c2)cc1` [Compound 9-1, methyl 2-{4-[N-{[3-(trifluoromethyl)phenyl]methoxy}ethanimidoyl]phenoxy}acetate]: the “Max (%) maximum activity” value in the data set with CLOCK:BMAL1 dimer (0.1-100 μM, 36 hours) stood at 107.89%. Take `COC(=O)COc1cccc(C(C)=NOCc2ccc(F)cc2)c1` [Compound 8-13]: the “cytotoxicity (Tox.) input to the EC50 field when the compound induces cell death” value (from here on “cytotoxicity (Tox.) input”) in the data set on NIH-3T3 fibroblast line was “(Tox.)”. In addition, the “Max (%) maximum activity” value in the data set with CLOCK:BMAL1 dimer (0.1-100 μM, 36 hours) was 119.93%.

`CC(=NOCc1ccc(S(C)(=O)=O)cc1)c1cccc(OCC(=O)O)c1` [Compound 8-12, {3-[N-{[4-(methanesulfonyl)phenyl]methoxy}ethanimidoyl]phenoxy}acetic acid]: the “Max (%) maximum activity” value in the data set with CLOCK:BMAL1 dimer (0.1-100 μM, 36 hours) is listed as 98.71%.

Take `CC(=NOCc1cccc(C(F)(F)F)c1)c1ccc(OCC(=O)O)cc1` [Compound 9-2, {4-[N-{[3-(trifluoromethyl)phenyl]methoxy}ethanimidoyl]phenoxy}acetic acid]: the “Max (%) maximum activity” value with CLOCK:BMAL1 dimer (0.1-100 μM, 36 hours) was found to be 115.15%. Same read-out and setting: under `CC(=NOCc1ccc(Br)cc1)c1ccc(OCC(=O)O)cc1` [Compound 9-6, (4-{N-[(4-bromophenyl)methoxy]ethanimidoyl}phenoxy)acetic acid] stands 106.70%; under `COc1ccc(CON=C(C)c2ccc(OCC(=O)O)cc2)cc1` [Compound 9-4, (4-{N-[(4-methoxyphenyl)methoxy]ethanimidoyl}phenoxy)acetic acid], 102.65%; under `CC(=NOCc1ccc(S(C)(=O)=O)cc1)c1ccc(OCC(=O)O)cc1` [Compound 9-12, {4-[N-{[4-(methanesulfonyl)phenyl]methoxy}ethanimidoyl]phenoxy}acetic acid], 111.38%.

Consider `CC(=NOCc1ccc(Br)cc1)c1ccc(OCC(=O)NCc2ccccn2)cc1` [Compound 9-7, 2-{4-[N-(4-bromophenyl)methoxyethanimidoyl]phenoxy}-N-[(pyridin-2-yl)methyl]acetamide], for which, in the data set with CLOCK:BMAL1 dimer (0.1-100 μM, 36 hours), the “Max (%) maximum activity” value stood at 135.47%.

The molecule `COC(=O)COc1cccc(C(C)=NOCc2cccc(C(F)(F)F)c2)c1` [Compound 8-1, methyl 2-{3-[N-{[3-(trifluoromethyl)phenyl]methoxy}ethanimidoyl]phenoxy}acetate] gave an EC50 in the data set on CLOCK:BMAL1 dimer (0.1-100 μM, 36 hours) of 27.4 µM. Consider `CC(=NOCc1ccc(Br)cc1)c1cccc(OCC(=O)O)c1` [Compound 8-6, (3-{N-[(4-bromophenyl)methoxy]ethanimidoyl}phenoxy)acetic acid], for which, in the data set on NIH-3T3 fibroblast line, the “cytotoxicity (Tox.) input” value was “(Tox.)”. Moreover, the “Max (%) maximum activity” value with CLOCK:BMAL1 dimer (0.1-100 μM, 36 hours) is listed as 123.78%. As to `COC(=O)COc1cccc(C(C)=NOCc2ccc([N+](=O)[O-])cc2)c1` [Compound 8-9, methyl 2-(3-{N-[(4-nitrophenyl)methoxy]ethanimidoyl}phenoxy)acetate], the cytotoxicity result in the data set on NIH-3T3 fibroblast line (at up to 100 μM) is “No significant cytotoxicity”. Besides, the “activity of E-box-LUC (concentration-response, FIG. 1)” value with CLOCK:BMAL1 dimer is “increase the activity of E-box-LUC in a concentration-dependent manner”. Further, in the data set on PER2-LUC fusion protein, the “amplitude of the circadian rhythm expression of the PER2-LUC fusion protein” value is “increases the amplitude of the circadian rhythm expression of the PER2-LUC fusion protein at a significant level”, the “period of the circadian rhythm expression of the PER2-LUC fusion protein” value is “not affecting the period” and the “robustness of the circadian rhythm expression of the PER2-LUC fusion protein” value is recorded as “not affecting the period or robustness”.

`CC(=NOCc1ccc(Br)cc1)c1cccc(OCC(=O)NCc2ccccn2)c1` [Compound 8-7, 2-{3-[N-(4-bromophenyl)methoxyethanimidoyl]phenoxy}-N-[(pyridin-2-yl)methyl]acetamide]: in the data set with CLOCK:BMAL1 dimer (0.1-100 μM, 36 hours), the “Max (%) maximum activity” value is reported as 129.69%.

`CC(=NOCc1ccc(Br)cc1)c1cccc(OCC(=O)NCCc2ncc[nH]2)c1` [Compound 8-8, 2-{3-[N-(4-bromophenyl)methoxyethanimidoyl]phenoxy}-N-[2-(1H-imidazol-2-yl)ethyl]acetamide]: in the data set with NIH-3T3 fibroblast line, the “cytotoxicity (Tox.) input” value is listed as “(Tox.)”. For the same molecule, the “Max (%) maximum activity” value in the data set with CLOCK:BMAL1 dimer (0.1-100 μM, 36 hours) is given as 121.10%. In the case of `CC(=NOCc1ccc(Br)cc1)c1ccc(OCC(=O)NCCc2ncc[nH]2)cc1` [Compound 9-8, 2-{4-[N-(4-bromophenyl)methoxyethanimidoyl]phenoxy}-N-[2-(1H-imidazol-2-yl)ethyl]acetamide], the “Max (%) maximum activity” value in the data set on CLOCK:BMAL1 dimer (0.1-100 μM, 36 hours) worked out at 120.89%. Turning to `COC(=O)COc1ccc(C(C)=NOCc2ccc([N+](=O)[O-])cc2)cc1` [Compound 9-9, methyl 2-(4-{N-[(4-nitrophenyl)methoxy]ethanimidoyl}phenoxy)acetate], the “Max (%) maximum activity” value in the data set on CLOCK:BMAL1 dimer (0.1-100 μM, 36 hours) is reported as 113.52%. Consider `COC(=O)COc1cccc(C(C)=NOCc2ccc(Br)cc2)c1` [Compound 8-5, methyl 2-(3-{N-[(4-bromophenyl)methoxy]ethanimidoyl}phenoxy)acetate], for which, in the data set on NIH-3T3 fibroblast line, the “cytotoxicity (Tox.) input” value was “(Tox.)”. On to `CC(=NOCc1ccc([N+](=O)[O-])cc1)c1ccc(OCC(=O)O)cc1` [Compound 9-10, (4-{N-[(4-nitrophenyl)methoxy]ethanimidoyl}phenoxy)acetic acid], for which, in the data set with CLOCK:BMAL1 dimer (0.1-100 μM, 36 hours), the “Max (%) maximum activity” value was 108.43%.

Take `COC(=O)COc1ccc(C(C)=NOCc2ccc(S(C)(=O)=O)cc2)cc1` [Compound 9-11, methyl 2-{4-[N-{[4-(methanesulfonyl)phenyl]methoxy}ethanimidoyl]phenoxy}acetate]: the “Max (%) maximum activity” value with CLOCK:BMAL1 dimer (0.1-100 μM, 36 hours) was 100.39%.
